# Assay results as given in the NIST ThermoML archive (doi:10.1021/je9005618).
# Numbers after ± are expanded uncertainties.
# Assay: refractive index (Na D-line) (dimensionless); xn = mol fraction of the nth substance listed
# Details: 101 kPa, Liquid
smiles,measurement,setting,value
CCn1cc[n+](C)c1.O=S(=O)([O-])C(F)(F)F [1-ethyl-3-methylimidazolium trifluoromethanesulfonate] + COC(C)=O,refractive index,"288.15 K, x1 = 0.05083",1.37625 ± 0.0013
same,refractive index,"288.15 K, x1 = 0.09991",1.38561 ± 0.0013
same,refractive index,"288.15 K, x1 = 0.1515",1.39328 ± 0.0013
same,refractive index,"288.15 K, x1 = 0.1998",1.39836 ± 0.0013
same,refractive index,"288.15 K, x1 = 0.2997",1.40796 ± 0.0013
same,refractive index,"288.15 K, x1 = 0.4003",1.41462 ± 0.0013
same,refractive index,"288.15 K, x1 = 0.4958",1.42026 ± 0.0013
same,refractive index,"288.15 K, x1 = 0.595",1.42444 ± 0.0013
same,refractive index,"288.15 K, x1 = 0.6962",1.42797 ± 0.0013
same,refractive index,"288.15 K, x1 = 0.7954",1.43089 ± 0.0013
same,refractive index,"288.15 K, x1 = 0.8385",1.43234 ± 0.0013
same,refractive index,"288.15 K, x1 = 0.8977",1.43347 ± 0.0013
same,refractive index,"288.15 K, x1 = 0.9466",1.43451 ± 0.0013
same,refractive index,"298.15 K, x1 = 0.05083",1.37116 ± 0.0013
same,refractive index,"298.15 K, x1 = 0.09991",1.38057 ± 0.0013
same,refractive index,"298.15 K, x1 = 0.1515",1.38873 ± 0.0013
same,refractive index,"298.15 K, x1 = 0.1998",1.39419 ± 0.0013
same,refractive index,"298.15 K, x1 = 0.2997",1.40429 ± 0.0013
same,refractive index,"298.15 K, x1 = 0.4003",1.4112 ± 0.0013
same,refractive index,"298.15 K, x1 = 0.4958",1.41695 ± 0.0013
same,refractive index,"298.15 K, x1 = 0.595",1.42123 ± 0.0013
same,refractive index,"298.15 K, x1 = 0.6962",1.42488 ± 0.0013
same,refractive index,"298.15 K, x1 = 0.7954",1.42794 ± 0.0013
same,refractive index,"298.15 K, x1 = 0.8385",1.42944 ± 0.0013
same,refractive index,"298.15 K, x1 = 0.8977",1.43061 ± 0.0013
same,refractive index,"298.15 K, x1 = 0.9466",1.4317 ± 0.0013
same,refractive index,"308.15 K, x1 = 0.05083",1.3671 ± 0.0013
same,refractive index,"308.15 K, x1 = 0.09991",1.37793 ± 0.0013
same,refractive index,"308.15 K, x1 = 0.1515",1.38548 ± 0.0013
same,refractive index,"308.15 K, x1 = 0.1998",1.39098 ± 0.0013
same,refractive index,"308.15 K, x1 = 0.2997",1.40087 ± 0.0013
same,refractive index,"308.15 K, x1 = 0.4003",1.40804 ± 0.0013
same,refractive index,"308.15 K, x1 = 0.4958",1.41367 ± 0.0013
same,refractive index,"308.15 K, x1 = 0.595",1.41831 ± 0.0013
same,refractive index,"308.15 K, x1 = 0.6962",1.42201 ± 0.0013
same,refractive index,"308.15 K, x1 = 0.7954",1.4251 ± 0.0013
same,refractive index,"308.15 K, x1 = 0.8385",1.42649 ± 0.0013
same,refractive index,"308.15 K, x1 = 0.8977",1.42771 ± 0.0013
same,refractive index,"308.15 K, x1 = 0.9466",1.4289 ± 0.0013
same,refractive index,"318.15 K, x1 = 0.05083",1.36334 ± 0.0013
same,refractive index,"318.15 K, x1 = 0.09991",1.37521 ± 0.0013
same,refractive index,"318.15 K, x1 = 0.1515",1.38291 ± 0.0013
same,refractive index,"318.15 K, x1 = 0.1998",1.38871 ± 0.0013
same,refractive index,"318.15 K, x1 = 0.2997",1.39857 ± 0.0013
same,refractive index,"318.15 K, x1 = 0.4003",1.40487 ± 0.0013
same,refractive index,"318.15 K, x1 = 0.4958",1.41049 ± 0.0013
same,refractive index,"318.15 K, x1 = 0.595",1.41533 ± 0.0013
same,refractive index,"318.15 K, x1 = 0.6962",1.41907 ± 0.0013
same,refractive index,"318.15 K, x1 = 0.7954",1.42226 ± 0.0013
same,refractive index,"318.15 K, x1 = 0.8385",1.42364 ± 0.0013
same,refractive index,"318.15 K, x1 = 0.8977",1.42488 ± 0.0013
same,refractive index,"318.15 K, x1 = 0.9466",1.42618 ± 0.0013
CCn1cc[n+](C)c1.O=S(=O)([O-])C(F)(F)F [1-ethyl-3-methylimidazolium trifluoromethanesulfonate] + CC(C)=O,refractive index,"288.15 K, x1 = 0.04957",1.37495 ± 0.0013
same,refractive index,"288.15 K, x1 = 0.1005",1.38499 ± 0.0013
same,refractive index,"288.15 K, x1 = 0.1503",1.39293 ± 0.0013
same,refractive index,"288.15 K, x1 = 0.2007",1.39936 ± 0.0013
same,refractive index,"288.15 K, x1 = 0.2995",1.40865 ± 0.0013
same,refractive index,"288.15 K, x1 = 0.3973",1.41585 ± 0.0013
same,refractive index,"288.15 K, x1 = 0.5018",1.42117 ± 0.0013
same,refractive index,"288.15 K, x1 = 0.5996",1.42541 ± 0.0013
same,refractive index,"288.15 K, x1 = 0.6973",1.42854 ± 0.0013
same,refractive index,"288.15 K, x1 = 0.7733",1.43087 ± 0.0013
same,refractive index,"288.15 K, x1 = 0.8452",1.43253 ± 0.0013
same,refractive index,"288.15 K, x1 = 0.8988",1.43368 ± 0.0013
same,refractive index,"288.15 K, x1 = 0.9559",1.43487 ± 0.0013
same,refractive index,"298.15 K, x1 = 0.04957",1.36994 ± 0.0013
same,refractive index,"298.15 K, x1 = 0.1005",1.38033 ± 0.0013
same,refractive index,"298.15 K, x1 = 0.1503",1.38854 ± 0.0013
same,refractive index,"298.15 K, x1 = 0.2007",1.39527 ± 0.0013
same,refractive index,"298.15 K, x1 = 0.2995",1.40492 ± 0.0013
same,refractive index,"298.15 K, x1 = 0.3973",1.41237 ± 0.0013
same,refractive index,"298.15 K, x1 = 0.5018",1.41787 ± 0.0013
same,refractive index,"298.15 K, x1 = 0.5996",1.42225 ± 0.0013
same,refractive index,"298.15 K, x1 = 0.6973",1.42549 ± 0.0013
same,refractive index,"298.15 K, x1 = 0.7733",1.42786 ± 0.0013
same,refractive index,"298.15 K, x1 = 0.8452",1.42963 ± 0.0013
same,refractive index,"298.15 K, x1 = 0.8988",1.43085 ± 0.0013
same,refractive index,"298.15 K, x1 = 0.9559",1.43207 ± 0.0013
same,refractive index,"308.15 K, x1 = 0.04957",1.36575 ± 0.0013
same,refractive index,"308.15 K, x1 = 0.1005",1.37615 ± 0.0013
same,refractive index,"308.15 K, x1 = 0.1503",1.38475 ± 0.0013
same,refractive index,"308.15 K, x1 = 0.2007",1.39155 ± 0.0013
same,refractive index,"308.15 K, x1 = 0.2995",1.40133 ± 0.0013
same,refractive index,"308.15 K, x1 = 0.3973",1.409 ± 0.0013
same,refractive index,"308.15 K, x1 = 0.5018",1.41464 ± 0.0013
same,refractive index,"308.15 K, x1 = 0.5996",1.41908 ± 0.0013
same,refractive index,"308.15 K, x1 = 0.6973",1.4225 ± 0.0013
same,refractive index,"308.15 K, x1 = 0.7733",1.4249 ± 0.0013
same,refractive index,"308.15 K, x1 = 0.8452",1.42676 ± 0.0013
same,refractive index,"308.15 K, x1 = 0.8988",1.42803 ± 0.0013
same,refractive index,"308.15 K, x1 = 0.9559",1.42925 ± 0.0013
same,refractive index,"318.15 K, x1 = 0.04957",1.36218 ± 0.0013
same,refractive index,"318.15 K, x1 = 0.1005",1.37308 ± 0.0013
same,refractive index,"318.15 K, x1 = 0.1503",1.38186 ± 0.0013
same,refractive index,"318.15 K, x1 = 0.2007",1.38862 ± 0.0013
same,refractive index,"318.15 K, x1 = 0.2995",1.39777 ± 0.0013
same,refractive index,"318.15 K, x1 = 0.3973",1.40574 ± 0.0013
same,refractive index,"318.15 K, x1 = 0.5018",1.41148 ± 0.0013
same,refractive index,"318.15 K, x1 = 0.5996",1.41604 ± 0.0013
same,refractive index,"318.15 K, x1 = 0.6973",1.41953 ± 0.0013
same,refractive index,"318.15 K, x1 = 0.7733",1.42199 ± 0.0013
same,refractive index,"318.15 K, x1 = 0.8452",1.42392 ± 0.0013
same,refractive index,"318.15 K, x1 = 0.8988",1.42518 ± 0.0013
same,refractive index,"318.15 K, x1 = 0.9559",1.4265 ± 0.0013
